We go through six molecules from publication PMC9897788, “Design, synthesis and cytotoxic evaluation of novel bis-thiazole derivatives as preferential Pim1 kinase inhibitors with in vivo and in silico study” (Journal of Enzyme Inhibition and Medicinal Chemistry, 2023).

What all share (experiment): NCI 60 cell one-dose screening (SRB)
Common to all, as to format: cell-based

One assay relates to MALME-3M. The following applies: Homo sapiens, Melanoma, single dose 10 µM, 48 h, read-out: Percentage of cellular growth inhibition. An outline of the steps: (§1)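 Growth percentage, referenced to time-zero and drug-free wells and measured by SRB absorbance (515 nm), was subtracted from 100 to give inhibition. Cells had been pre-grown 24 h, then incubated 48 h at 37 °C, 5% CO2 with test compound at 10 µM final.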

The test system of the next assay is SK-OV-3. The settings on record: Homo sapiens; SK-OV-3, Ovarian Cancer; single dose 10 µM, 48 h; read-out: Percentage of cellular growth inhibition. An outline of the steps: as §1
Another assay relates to A498. The settings on record: Homo sapiens; A498, Renal Cancer; single dose 10 µM, 48 h; read-out: Percentage of cellular growth inhibition. An outline of the steps:
as §1

In the next assay the test system is HOP-92. The following applies: Homo sapiens, HOP-92, 48 h, HOP-92, Non-Small Cell Lung Cancer, single dose 10 µM, read-out: Percentage of cellular growth inhibition. An outline of the steps:
as §1

The test system of another assay is SNB-19. The following applies: Homo sapiens; SNB-19, CNS Cancer; single dose 10 µM, 48 h; read-out: Percentage of cellular growth inhibition. An outline of the steps: as §1
For another assay, the system named is TK-10. The settings on record: Homo sapiens; TK-10, Renal Cancer; single dose 10 µM, 48 h; read-out: Percentage of cellular growth inhibition. An outline of the steps:
as §1

In a further assay the test system is K-562. The following applies: Homo sapiens, K562; K-562, Leukemia; single dose 10 µM, 48 h; read-out: Percentage of cellular growth inhibition. In short, it runs like this: as §1
The next assay concerns OVCAR-4. The following applies: Homo sapiens; OVCAR-4, Ovarian Cancer; single dose 10 µM, 48 h; read-out: Percentage of cellular growth inhibition. In short, it runs like this:
as §1

Another assay deals with HCT-15. The settings on record: Homo sapiens; HCT-15, Colon Cancer; single dose 10 µM, 48 h; read-out: Percentage of cellular growth inhibition. In short, it runs like this:
as §1

In a further assay the test system is CAKI-1. The settings on record: Homo sapiens; CAKI-1, Renal Cancer; single dose 10 µM, 48 h; read-out: Percentage of cellular growth inhibition. An outline of the steps:
as §1

Another assay concerns PC-3. The settings on record: Homo sapiens; PC-3, Prostate Cancer; single dose 10 µM, 48 h; read-out: Percentage of cellular growth inhibition. An outline of the steps:
as §1

In the next assay the test system is SK-MEL-28. The following applies: Homo sapiens; SK-MEL-28, Melanoma; single dose 10 µM, 48 h; read-out: Percentage of cellular growth inhibition. An outline of the steps:
as §1

Another assay relates to NCI/ADR-RES. The following applies: Homo sapiens, Ovarian Cancer, single dose 10 µM, 48 h, read-out: Percentage of cellular growth inhibition. An outline of the steps: as §1
In a further assay the test system is UACC-257. The settings on record: Homo sapiens; UACC-257, Melanoma; single dose 10 µM, 48 h; read-out: Percentage of cellular growth inhibition. In short, it runs like this:
as §1

The test system of another assay is OVCAR-5. The settings on record: Homo sapiens; OVCAR-5, Ovarian Cancer; single dose 10 µM, 48 h; read-out: Percentage of cellular growth inhibition. In short, it runs like this: as §1
The subject of a further assay is SN12C. The settings on record: Homo sapiens, Renal Cancer, single dose 10 µM, 48 h, read-out: Percentage of cellular growth inhibition. In short, it runs like this: as §1
The test system of a further assay is IGROV1. The following applies: Homo sapiens, IGROV-1; IGROV1, Ovarian Cancer; single dose 10 µM, 48 h; read-out: Percentage of cellular growth inhibition. An outline of the steps: as §1
Another assay relates to A549/ATCC. The settings on record: Homo sapiens, Non-Small Cell Lung Cancer, single dose 10 µM, 48 h, read-out: Percentage of cellular growth inhibition. In short, it runs like this: as §1
A further assay deals with MDA-MB-435. The following applies: Homo sapiens; MDA-MB-435, Melanoma; single dose 10 µM, 48 h; read-out: Percentage of cellular growth inhibition. An outline of the steps:
as §1

The subject of a further assay is BT-549. The settings on record: Homo sapiens; BT-549, Breast Cancer; single dose 10 µM, 48 h; read-out: Percentage of cellular growth inhibition. An outline of the steps: as §1

With `CCOC(=O)c1sc(Nc2cccc(Nc3nc(C)c(C(=O)OCC)s3)c2)nc1C` [3c, Diethyl 2,2’-(1,3-phenylenebis(azanediyl))bis(4-methylthiazole-5-carboxylate)], the inhibition (in general, the relative decrease from the control value, in per cent) at 10 µM with MALME-3M was 15.2%; with SK-OV-3, 1.3%; with A498, 52.7%; with HOP-92 it was 47.8%; with SNB-19 it was 17.7%; with TK-10, -0.8%. The inhibition at 10 µM amounted to 39.9% in the assay with K-562; 33.2% in the assay with OVCAR-4; 20.9% with HCT-15; 21.9% with CAKI-1; 22.9% in the assay with PC-3; 15.7% with SK-MEL-28. The inhibition at 10 µM in the assay with NCI/ADR-RES is 33.1%; in the assay with UACC-257, 10.3%; with OVCAR-5 it was 8%; in the assay with SN12C it was 11.8%; in the assay on IGROV1 it was 23.4%; in the assay on A549/ATCC it was 12%. In addition, the inhibition at 10 µM in the assay with MDA-MB-435 came to 17.9%; with BT-549, 26.3%.
In the case of `Cc1nc(Nc2cccc(Nc3nc(C)c(N=Nc4ccccc4)s3)c2)sc1N=Nc1ccccc1` [5a, N^1,N^3-bis(4-methyl-5-(phenyldiazenyl)thiazol-2-yl)benzene-1,3-diamine], the inhibition at 10 µM is -7.7% in the assay with MALME-3M; -6.6% with SK-OV-3; 1.2% in the assay on A498; -4% in the assay with HOP-92; 42.6% in the assay on SNB-19; 2.9% in the assay on TK-10. Besides, the inhibition at 10 µM is 32.9% with K-562; 30.8% with OVCAR-4; 21% in the assay on HCT-15; 54.8% in the assay on CAKI-1; -3.3% in the assay on PC-3; 2.5% in the assay on SK-MEL-28. Also, the inhibition at 10 µM in the assay on NCI/ADR-RES is 10.2%; with UACC-257, 2.7%; in the assay with OVCAR-5, 19.8%; in the assay on SN12C, 53.9%; with IGROV1 it was 52.2%; in the assay on A549/ATCC, 36.4%. The inhibition at 10 µM was determined as 7.9% in the assay on MDA-MB-435 and 5.8% with BT-549.
Consider `c1ccc(/N=c2\scc(-c3ccccc3)n2-c2cccc(-n3c(-c4ccccc4)cs/c3=N\c3ccccc3)c2)cc1` [8a, N,N’-(3,3’-(1,3-phenylene)bis(4-phenylthiazole-3(3H)-yl-2(3H)-ylidene))dianiline], for which the inhibition at 10 µM was 3% with MALME-3M; -34.8% with SK-OV-3; -18.1% with A498; 14.5% in the assay with HOP-92; -5.9% in the assay with SNB-19; -38.8% with TK-10. Moreover, the inhibition at 10 µM is 7.8% in the assay on K-562; 5.3% in the assay with OVCAR-4; -4.7% with HCT-15; 25.4% in the assay with CAKI-1; 21.8% with PC-3; -3.6% in the assay on SK-MEL-28. Further, the inhibition at 10 µM with NCI/ADR-RES is -5%; in the assay on UACC-257 it was -11.8%; in the assay on OVCAR-5, -2.9%; with SN12C, 3.9%; with IGROV1, -6.1%; with A549/ATCC, -4.9%. Moreover, the inhibition at 10 µM is 1% in the assay with MDA-MB-435 and -31.8% in the assay with BT-549.
Consider `c1ccc(-c2csc(Nc3cccc(Nc4nc(-c5ccccc5)cs4)c3)n2)cc1` [6a, N^1,N^3-bis(4-phenylthiazol-2-yl)benzene-1,3-diamine], for which the inhibition at 10 µM was determined as 47.2% in the assay on MALME-3M; 2.5% in the assay on SK-OV-3; 14.5% in the assay with A498; 56.3% in the assay with HOP-92; 42% in the assay on SNB-19; 31.4% in the assay on TK-10. The inhibition at 10 µM was determined as 73.4% in the assay on K-562; 62.4% in the assay on OVCAR-4; 69.5% in the assay with HCT-15; 65.1% in the assay with CAKI-1; 67.9% with PC-3; 39.1% in the assay on SK-MEL-28. Besides, the inhibition at 10 µM in the assay on NCI/ADR-RES worked out at 73.9%; with UACC-257, 53.9%; in the assay with OVCAR-5, 35.5%; in the assay on SN12C it was 56.6%; in the assay on IGROV1 it was 65.9%; with A549/ATCC, 55.8%. Moreover, the inhibition at 10 µM came to 55.3% in the assay with MDA-MB-435 and 68.3% in the assay with BT-549.
`Clc1ccc(-c2cs/c(=N\c3ccccc3)n2-c2cccc(-n3c(-c4ccc(Cl)cc4)cs/c3=N\c3ccccc3)c2)cc1` [8c, N,N’-(3,3’-(1,3-phenylene)bis(4–(4-chlorophenyl)thiazole-3(3H)-yl-2(3H)-ylidene))dianiline]: the inhibition at 10 µM in the assay with MALME-3M is 6.7%; in the assay with SK-OV-3 it was -29.4%; in the assay on A498, -16.3%; in the assay with HOP-92, 2.4%; with SNB-19, 3.8%; with TK-10 it was -14.1%. For the same molecule, the inhibition at 10 µM with K-562 is 11.7%; with OVCAR-4 it was 12%; with HCT-15 it was -1.3%; in the assay on CAKI-1, 9%; in the assay with PC-3, 28.9%; in the assay on SK-MEL-28, -1%. In addition, the inhibition at 10 µM with NCI/ADR-RES was 0.5%; in the assay on UACC-257, -8.4%; in the assay on OVCAR-5, -2.6%; in the assay on SN12C, 2.3%; in the assay on IGROV1, -0.4%; in the assay on A549/ATCC, 27.7%. Further, the inhibition at 10 µM was 5.4% in the assay with MDA-MB-435 and -15.5% in the assay with BT-549.
On to `NC(=S)Nc1cccc(NC(N)=S)c1` [compound 2, 1,1′-(1,3-phenylene)bis(thiourea)], for which the inhibition at 10 µM in the assay on MALME-3M is 15.7%; with SK-OV-3, -25.8%; with A498, -1.2%; in the assay on HOP-92 it was -4.5%; with SNB-19 it was 11.7%; in the assay with TK-10, -7.3%. The inhibition at 10 µM in the assay on K-562 is 90.7%; in the assay with OVCAR-4, 5.4%; with HCT-15 it was 4.9%; in the assay on CAKI-1, 20.3%; in the assay on PC-3 it was -2.4%; in the assay with SK-MEL-28, -3.8%. In addition, the inhibition at 10 µM in the assay with NCI/ADR-RES was 2.4%; in the assay with UACC-257, 1.9%; in the assay on OVCAR-5, -3.6%; with SN12C it was 18.1%; with IGROV1, 2.5%; in the assay with A549/ATCC it was 6.1%. Also, the inhibition at 10 µM was 2.7% in the assay on MDA-MB-435 and -14.6% in the assay on BT-549.
